# Assay results as given in ChEMBL document CHEMBL1136213, “2,6-disubstituted pyran-4-one and thiopyran-4-one inhibitors of DNA-Dependent protein kinase (DNA-PK)” (Bioorg Med Chem Lett, 2003).
# What was measured:
# [1] = target: T1, DNA-dependent protein kinase catalytic subunit (Homo sapiens, UniProt P78527); experiment: Affinity for DNA-dependent protein kinase(DNA-PK) from HeLa cell extract
# [2] = target: T1, DNA-dependent protein kinase catalytic subunit; experiment: In vitro inhibition of DNA-dependent protein kinase(DNA-PK) from HeLa (human carcinoma) cells.; type: cell-based
# T1 sequence (P78527 whole entry): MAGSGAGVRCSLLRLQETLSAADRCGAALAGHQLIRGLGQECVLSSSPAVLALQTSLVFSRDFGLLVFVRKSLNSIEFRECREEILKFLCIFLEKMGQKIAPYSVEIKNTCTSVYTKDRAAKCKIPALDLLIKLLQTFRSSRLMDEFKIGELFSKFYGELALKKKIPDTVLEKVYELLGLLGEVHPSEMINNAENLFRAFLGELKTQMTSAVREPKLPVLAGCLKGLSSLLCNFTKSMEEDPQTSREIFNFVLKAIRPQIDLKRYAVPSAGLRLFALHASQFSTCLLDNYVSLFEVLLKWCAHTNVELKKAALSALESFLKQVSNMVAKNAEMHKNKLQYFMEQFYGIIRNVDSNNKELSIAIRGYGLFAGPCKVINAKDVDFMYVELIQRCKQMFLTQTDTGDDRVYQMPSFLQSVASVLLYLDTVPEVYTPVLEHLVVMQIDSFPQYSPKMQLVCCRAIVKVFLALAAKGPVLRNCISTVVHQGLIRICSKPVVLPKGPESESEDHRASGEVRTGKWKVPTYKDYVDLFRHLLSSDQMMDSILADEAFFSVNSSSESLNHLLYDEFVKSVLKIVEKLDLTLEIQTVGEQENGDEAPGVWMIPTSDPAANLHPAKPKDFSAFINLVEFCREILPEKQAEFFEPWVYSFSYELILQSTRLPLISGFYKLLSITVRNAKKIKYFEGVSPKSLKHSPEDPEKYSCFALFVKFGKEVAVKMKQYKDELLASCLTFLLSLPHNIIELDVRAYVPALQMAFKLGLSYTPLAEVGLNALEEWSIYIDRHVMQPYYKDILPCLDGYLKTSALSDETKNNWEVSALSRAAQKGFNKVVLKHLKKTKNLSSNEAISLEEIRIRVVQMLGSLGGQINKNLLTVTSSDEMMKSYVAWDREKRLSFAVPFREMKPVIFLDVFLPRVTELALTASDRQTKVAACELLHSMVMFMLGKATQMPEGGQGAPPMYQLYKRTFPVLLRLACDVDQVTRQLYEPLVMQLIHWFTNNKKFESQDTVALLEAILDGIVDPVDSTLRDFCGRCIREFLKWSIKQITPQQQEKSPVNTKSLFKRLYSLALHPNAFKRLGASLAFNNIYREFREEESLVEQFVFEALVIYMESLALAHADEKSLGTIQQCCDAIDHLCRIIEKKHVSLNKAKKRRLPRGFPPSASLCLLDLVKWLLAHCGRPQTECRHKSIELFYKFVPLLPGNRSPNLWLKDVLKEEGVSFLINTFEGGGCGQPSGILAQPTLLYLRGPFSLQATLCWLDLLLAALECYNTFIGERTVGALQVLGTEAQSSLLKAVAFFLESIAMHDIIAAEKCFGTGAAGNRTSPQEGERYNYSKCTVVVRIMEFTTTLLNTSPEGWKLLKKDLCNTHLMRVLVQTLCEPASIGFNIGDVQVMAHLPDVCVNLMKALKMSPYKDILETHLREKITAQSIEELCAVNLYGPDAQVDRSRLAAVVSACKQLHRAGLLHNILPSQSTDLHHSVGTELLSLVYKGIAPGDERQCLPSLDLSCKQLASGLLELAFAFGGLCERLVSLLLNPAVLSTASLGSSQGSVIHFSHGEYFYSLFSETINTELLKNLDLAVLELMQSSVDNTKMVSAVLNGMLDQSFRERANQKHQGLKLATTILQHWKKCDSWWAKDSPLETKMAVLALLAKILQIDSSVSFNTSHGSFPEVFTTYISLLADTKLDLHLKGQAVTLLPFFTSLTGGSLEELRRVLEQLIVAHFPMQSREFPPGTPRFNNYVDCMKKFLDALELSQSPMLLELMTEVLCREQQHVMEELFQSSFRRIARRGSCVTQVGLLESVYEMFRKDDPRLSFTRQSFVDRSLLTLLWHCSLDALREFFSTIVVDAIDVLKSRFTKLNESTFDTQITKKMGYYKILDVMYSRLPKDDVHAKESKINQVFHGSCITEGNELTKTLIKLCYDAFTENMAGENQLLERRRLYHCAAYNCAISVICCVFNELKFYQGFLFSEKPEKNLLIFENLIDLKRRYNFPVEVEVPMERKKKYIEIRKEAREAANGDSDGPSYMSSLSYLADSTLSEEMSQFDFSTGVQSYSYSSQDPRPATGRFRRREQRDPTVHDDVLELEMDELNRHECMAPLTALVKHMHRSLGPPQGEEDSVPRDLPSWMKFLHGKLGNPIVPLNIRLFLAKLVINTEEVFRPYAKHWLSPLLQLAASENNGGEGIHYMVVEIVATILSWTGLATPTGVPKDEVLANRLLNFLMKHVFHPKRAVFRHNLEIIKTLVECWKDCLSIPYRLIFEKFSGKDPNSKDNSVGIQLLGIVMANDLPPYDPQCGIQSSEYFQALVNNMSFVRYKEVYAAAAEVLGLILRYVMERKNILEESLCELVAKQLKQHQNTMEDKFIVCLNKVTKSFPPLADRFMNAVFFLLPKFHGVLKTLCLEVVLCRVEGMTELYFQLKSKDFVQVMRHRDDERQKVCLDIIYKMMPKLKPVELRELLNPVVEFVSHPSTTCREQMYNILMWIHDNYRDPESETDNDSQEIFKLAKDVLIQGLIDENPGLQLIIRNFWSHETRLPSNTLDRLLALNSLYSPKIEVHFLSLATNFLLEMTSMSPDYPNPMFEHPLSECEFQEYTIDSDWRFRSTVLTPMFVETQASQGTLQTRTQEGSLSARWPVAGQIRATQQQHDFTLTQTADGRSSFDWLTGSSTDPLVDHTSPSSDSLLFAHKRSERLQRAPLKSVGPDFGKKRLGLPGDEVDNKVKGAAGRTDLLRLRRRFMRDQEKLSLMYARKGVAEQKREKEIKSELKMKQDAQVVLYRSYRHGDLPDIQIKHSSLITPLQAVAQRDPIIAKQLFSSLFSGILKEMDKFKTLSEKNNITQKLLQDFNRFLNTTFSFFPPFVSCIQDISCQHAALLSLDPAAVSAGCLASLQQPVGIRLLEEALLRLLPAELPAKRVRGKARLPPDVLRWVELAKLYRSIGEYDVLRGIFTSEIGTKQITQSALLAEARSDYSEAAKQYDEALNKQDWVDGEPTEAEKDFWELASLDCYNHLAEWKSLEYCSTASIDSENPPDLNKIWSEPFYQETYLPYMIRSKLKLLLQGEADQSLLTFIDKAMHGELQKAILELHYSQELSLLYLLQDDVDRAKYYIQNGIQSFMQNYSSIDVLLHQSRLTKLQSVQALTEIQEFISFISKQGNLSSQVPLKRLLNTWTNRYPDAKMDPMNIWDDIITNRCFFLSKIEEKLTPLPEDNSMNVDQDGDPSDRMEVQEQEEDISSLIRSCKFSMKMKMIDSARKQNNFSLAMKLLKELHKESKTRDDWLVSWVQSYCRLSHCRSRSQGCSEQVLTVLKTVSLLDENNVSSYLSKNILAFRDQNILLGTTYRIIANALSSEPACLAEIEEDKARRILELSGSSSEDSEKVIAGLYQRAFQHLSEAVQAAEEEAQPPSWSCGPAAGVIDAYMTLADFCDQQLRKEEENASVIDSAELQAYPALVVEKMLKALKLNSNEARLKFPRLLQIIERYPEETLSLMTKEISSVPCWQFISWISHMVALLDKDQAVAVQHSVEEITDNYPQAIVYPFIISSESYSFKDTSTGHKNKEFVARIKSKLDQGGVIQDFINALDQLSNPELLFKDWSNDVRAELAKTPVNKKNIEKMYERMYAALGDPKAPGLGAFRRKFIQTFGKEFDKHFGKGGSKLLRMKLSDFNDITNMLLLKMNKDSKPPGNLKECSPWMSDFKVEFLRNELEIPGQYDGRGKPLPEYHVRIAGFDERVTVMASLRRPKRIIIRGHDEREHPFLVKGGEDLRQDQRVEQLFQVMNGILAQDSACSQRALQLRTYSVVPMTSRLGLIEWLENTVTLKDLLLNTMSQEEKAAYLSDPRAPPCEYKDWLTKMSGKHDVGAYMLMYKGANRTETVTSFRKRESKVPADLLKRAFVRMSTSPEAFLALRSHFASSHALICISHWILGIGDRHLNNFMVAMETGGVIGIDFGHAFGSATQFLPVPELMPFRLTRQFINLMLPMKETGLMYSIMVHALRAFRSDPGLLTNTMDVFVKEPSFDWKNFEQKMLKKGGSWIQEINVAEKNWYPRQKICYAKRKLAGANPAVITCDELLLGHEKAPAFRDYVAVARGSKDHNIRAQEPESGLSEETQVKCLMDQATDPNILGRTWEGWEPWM
Ki [1] [µM],IC50 [2] [µM],Compound
6,–,O=c1cc(N2CCOCC2)oc2c(-c3ccccc3)cccc12 [LY-294002]
–,0.23,O=c1cc(N2CCOCC2)oc2c1ccc1ccccc12
–,0.35,O=c1cc(-c2cccc(-c3ccc(O)cc3)c2)sc(N2CCOCC2)c1
